For one data set, the system named is mice. The settings on record: cited from earlier work; for effect on symptoms of ethanol intoxication: Dar et al. (1985); for intoxicating effect of ethanol: administration over a 10-day period to mice, Dar and Wooles (1986); for ethanol-induced ataxia: pretreated mice, Dar et al. (1987).
Data set [1] has as its system S49 wild type cells. Nature of the data set: agonist stimulation of cAMP levels over basal. As to the method:
(§1) S49 wild type (WT) and adenosine transport mutants (80-2A6 and 160-D4) were grown in defined media (11, without phytohemagglutinin) with 1 U/ml ADA for at least 2 weeks. They were then grown in the presence or absence of 100 mM ethanol with or without 1.5 U/ml ADA for 48 hours. Accumulation of adenosine over 5 min was determined by incubating 1.0×10^7 cells/ml in sterilized PBS in the absence or presence of 200 mM ethanol. Extracellular adenosine concentrations were determined as in FIG. 2. Accumulation of adenosine over 24 hours in the absence or presence of 100 mM ethanol was determined as described by Green (1980) supra.. Assays for receptor-stimulated cAMP levels were carried out as in FIG. 3. […] Values represent means ±SEM. Number of determinations in indicated in parentheses.
On the technique in general: Cyclic AMP is a second messenger, typically raised through Gs and lowered through Gi signalling.

For data set [2], the system named is C1300 neuroblastoma cells. The settings on record: endogenously released, overnight culture; cited from earlier work.
The test system of data set [3] is NG108-15 cells. Nature of the data set: acute effect of ethanol on endogenous cAMP levels. It counts as cell-based.
Procedure: NG108-15 cells were grown in defined media as described (Gordon et al. (1986) supra.) to a final density of 12-20×10^6 cells per flask. […] Bars represent means ±SEM, n=4-9.
Data set [4] has as its system S49 adenosine transport mutant 80-2A6. Nature of the data set: cells. The following applies: 48 h. As for the experimental part: as §1
In data set [5] the test system is S49 adenosine transport mutant 160-D4. Briefly: cells. The following applies: 48 h. As to the method: as §1
The test system of data set [6] is NG108-15 cells. The following applies: 200 mM ethanol, 10 min. As to the method: NG108-15 cells (5×10^6 cells/well) were incubated with 2 ml of PBS in the presence or absence of 200 mM ethanol for 10 min. Fluorescent derivatives of adenosine were prepared (Green (1980) supra.) and injected onto a reverse-phase HPLC column equilibrated with 1.2 mM KPO4, pH 5 and eluted with a 0-60% methanol gradient. Peak areas were compared with those of known amounts of 1,N^6 -ethenoadenosine.

Data set [7] concerns S49 adenosine transport mutant 80-2A6. As to the method:
as §1

Data set [8] concerns S49 wild type cells. As for the experimental part: as §1
In data set [9] the test system is S49 wild type cells. Nature of the data set: receptor-stimulated cAMP levels after chronic ethanol. The format is cell-based. The following applies: for activity at 100000 µM: wild type, 100 mM EtOH 48 hr. As to the method:
as §1

Data set [10] relates to adenosine transport in freshly isolated lymphocytes. The following applies: lymphocytes from alcoholics vs nonalcoholics, 200 mM ethanol 3 min, uptake at 10 seconds.
Procedure: Uptake of [^3 H]-adenosine in freshly isolated lymphocytes from nonalcoholics and actively drinking alcoholics was also measured.
The subject of a further data set is cultured lymphocytes. Nature of the data set: cells. The settings on record: for activation at 100000 µM: Homo sapiens, Lymphocyte, 5 min. As to the method:
Lymphocytes from alcoholics and nonalcoholics were grown in culture for 6 days, and 100 mM ethanol was added for 24 hours. The cells were washed, preincubated for 5 minutes in the absence of ethanol, and then incubated in the absence and presence of 100 mM ethanol for 5 minutes. Extracellular adenosine was measured by HPLC (n=5-7 for alcoholics and nonalcoholics).

[11] abbreviates: read-out: cAMP levels, 1 uM PGE1.
Setting [12] is: read-out: cAMP levels, 100 uM PIA.

Like-named read-outs stand apart in the source and are kept apart here.

Turning to `Cn1c(=O)c2[nH]cnc2n(C)c1=O` [theophylline], in the data set with mice, the “effect on symptoms of ethanol intoxication” value is given as “ameliorated certain symptoms of intoxication while having no effect on others”, the “intoxicating effect of ethanol” value is “appeared to have no effect” and the ethanol-induced ataxia entry is listed as “significant potentiation”.
For `C[C@H](Cc1ccccc1)Nc1ncnc2c1ncn2[C@@H]1O[C@H](CO)[C@@H](O)[C@H]1O` [PIA], the “increase in cAMP levels over basal” value in the data set with S49 wild type cells [1] (maximally-effective concentration) was determined as 1.92±0.41 fold.
On to `Nc1ncnc2c1ncn2[C@@H]1O[C@H](CO)[C@@H](O)[C@H]1O` [adenosine], for which, in [2], the “concentration sufficient to desensitize adenosine receptor-dependent cAMP production” value was 10 to 20 nM.
As to `OCCN(CCO)c1nc(N2CCCCC2)c2nc(N(CCO)CCO)nc(N3CCCCC3)c2n1` [Dipyridamole], the “effect on symptoms of ethanol intoxication” value with mice is given as “potentiating effect on certain symptoms of ethanol intoxication”.
For `CC(C)Cn1c(=O)n(C)c(=O)c2[nH]cnc21` [IBMX, isobutylmethylxanthine], the “effect on ethanol-induced increase in cAMP levels” value in the data set with NG108-15 cells [3] (co-incubation with ethanol 10 min, 1 U/ml ADA or isobutylmethylxanthine) was “completely blocked”. For the same molecule, in the data set with mice, the “intoxicating effect of ethanol” value is recorded as “increased” and the ethanol-induced ataxia result is “significant potentiation”.
For `CCO` [ethanol], the activity at 100000 µM is 82 ± 7% in data set [4] (setting [11]); 115 ± 11% in data set [4] (setting [12]); 98 ± 7% in [5] (setting [11]); 94 ± 9% in [5] (setting [12]); 36 ± 6% in the data set on S49 wild type cells [9] (setting [11]); 65 ± 7% in the data set on S49 wild type cells [9] (setting [12]). Besides, the extracellular adenosine concentration in the data set with NG108-15 cells [6] is reported as 37±1.2 nM/5×10^6 cells. The “extracellular adenosine, EtOH” value in data set [7] (80-2A6, 5 min, EtOH 200 mM) was 0 nM/10^7 cells; in [7] (80-2A6, 24 hr, EtOH 100 mM), 0 nM/10^7 cells; with S49 wild type cells [8] (5 min, EtOH 200 nM as printed), 17.6 ± 3.6 nM/10^7 cells; in the data set with S49 wild type cells [8] (24 hr, EtOH 100 nM as printed), 56.7 ± 10.2 nM/10^7 cells. The “inhibition of adenosine uptake” value in [10] is listed as “less inhibition by ethanol compared to uptake in cells from nonalcoholics”. For the same molecule, the activation at 200000 µM in the data set with NG108-15 cells [3] (Homo sapiens, NG108-15, 10 min, 200 mM ethanol, 10 min, no added agonist, read-out: increase in intracellular cAMP concentration) came out at 60%. The activation at 100000 µM in the data set with cultured lymphocytes (read-out: increase in extracellular adenosine on rechallenge, lymphocytes from alcoholics, after chronic ethanol, rechallenge 100 mM ethanol) was 73%; in the data set on cultured lymphocytes (read-out: increase in extracellular adenosine, lymphocytes from alcoholics, 100 mM ethanol 5 min), 37%; with cultured lymphocytes (read-out: increase in extracellular adenosine, lymphocytes from nonalcoholics, 100 mM ethanol 5 min) it was 17%. Moreover, the “increase in extracellular adenosine on rechallenge” value in the data set on cultured lymphocytes (lymphocytes from nonalcoholics, after 100 mM ethanol 24 hours, rechallenge) is on record as “did not increase extracellular adenosine”.
Take `OC[C@H]1O[C@@H](n2cnc3c(O)ncnc32)[C@H](O)[C@@H]1O` [inosine, reference compound]: the “desensitization of the adenosine receptor” value in the data set on S49 wild type cells [9] (S49 wild type cells exposed 48 hr, data not shown) is “did not desensitize the adenosine receptor”.
As for `Cn1c(=O)c2c(ncn2C)n(C)c1=O` [caffeine], in the data set on mice, the “intoxicating effect of ethanol” value was “increased” and the ethanol-induced ataxia result is recorded as “significant potentiation”.
In the case of `CCCCC[C@H](O)/C=C/[C@H]1[C@H](O)CC(=O)[C@@H]1CCCCCCC(=O)O` [PGE1], the maximal fold induction with S49 wild type cells [1] (Mus musculus, read-out: increase in cAMP levels over basal) was 13.5 ± 3.5.

Values taken from patent US5069895A, “Methods for the treatment of alcohol intoxication and dependence” (priority 1989, dated 1991).
